Patent US10781204B2, “TYK2 inhibitors and uses thereof” (Nimbus Lakshmi, Inc., priority 2015, dated 2020)
pEC50, pKi: −log10 of the molar value.

Tests used:
[1] = target: TYK2 (Homo sapiens (Human), UniProt P29597); assay: Tyk2 radioactive kinase assay; type: biochemical; details: ATP 10 μM
How it was run: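 Recombinant human TYK2 (Invitrogen) was mixed with 20 μM peptide substrate in a buffer of 20 mM Hepes pH 7.5, 10 mM MgCl2, 1 mM EGTA, 0.02% Brij35, 0.02 mg/mL BSA, 0.1 mM […], 2 mM DTT and 1% DMSO, and compounds in DMSO were added. Adding ^33P-ATP (10 μM ATP) started the reaction, which ran 120 min at room temperature. Mixtures were then spotted onto P81 ion-exchange paper, washed thoroughly in 0.75% phosphoric acid, and counted for radioactivity.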

[2] = target: JAK2 (Homo sapiens (Human), UniProt O60674); assay: JAK2 radioactive kinase assay; type: biochemical; details: ATP 10 μM
Sequence of JAK2 (O60674 whole entry): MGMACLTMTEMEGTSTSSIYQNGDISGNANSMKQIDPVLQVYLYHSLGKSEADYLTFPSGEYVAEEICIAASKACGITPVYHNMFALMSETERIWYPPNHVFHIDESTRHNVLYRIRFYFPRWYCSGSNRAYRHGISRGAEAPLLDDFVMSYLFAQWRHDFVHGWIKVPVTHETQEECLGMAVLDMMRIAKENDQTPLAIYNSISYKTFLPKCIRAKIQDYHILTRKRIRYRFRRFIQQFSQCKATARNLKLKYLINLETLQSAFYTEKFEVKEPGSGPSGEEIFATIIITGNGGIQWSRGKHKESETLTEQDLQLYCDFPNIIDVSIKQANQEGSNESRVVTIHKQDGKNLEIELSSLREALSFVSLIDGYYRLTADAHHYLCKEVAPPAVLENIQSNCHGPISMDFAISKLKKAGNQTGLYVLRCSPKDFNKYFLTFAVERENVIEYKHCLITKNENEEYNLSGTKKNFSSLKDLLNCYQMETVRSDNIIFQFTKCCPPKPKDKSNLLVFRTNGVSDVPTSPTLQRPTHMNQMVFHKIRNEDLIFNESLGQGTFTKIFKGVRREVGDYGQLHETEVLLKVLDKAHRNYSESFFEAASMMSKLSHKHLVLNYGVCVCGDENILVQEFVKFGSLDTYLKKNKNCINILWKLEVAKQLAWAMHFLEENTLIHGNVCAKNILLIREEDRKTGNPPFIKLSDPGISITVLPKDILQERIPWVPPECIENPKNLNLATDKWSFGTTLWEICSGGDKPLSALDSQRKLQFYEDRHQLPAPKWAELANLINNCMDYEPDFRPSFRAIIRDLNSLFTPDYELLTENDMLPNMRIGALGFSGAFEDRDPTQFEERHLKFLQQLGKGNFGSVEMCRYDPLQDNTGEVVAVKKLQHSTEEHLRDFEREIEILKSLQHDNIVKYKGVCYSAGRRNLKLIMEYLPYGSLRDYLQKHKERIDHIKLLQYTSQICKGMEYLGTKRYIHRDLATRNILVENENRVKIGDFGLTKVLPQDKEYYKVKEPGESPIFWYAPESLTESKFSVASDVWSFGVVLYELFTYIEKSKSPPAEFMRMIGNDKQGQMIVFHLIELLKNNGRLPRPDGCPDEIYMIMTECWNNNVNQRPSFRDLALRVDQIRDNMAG
How it was run: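 Radiometric assay in Hepes pH 7.5, MgCl2, EGTA, Brij35, BSA, DTT, 1% DMSO, with 10 μM [33P]ATP, 120 min at room temp; P81 paper capture and counting. […]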

[3] = tested on: Tyk2-pSTAT4 (IL-12 induced pSTAT4); assay: IL-12 induced pSTAT4 in human PBMC; type: cell-based; details: 1.7 ng/mL IL-12, 30 minutes
How it was run: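 Thawed human PBMC (200,000 cells/well, serum-containing medium) preincubated with compound 1 hr at 37 C, 0.1% DMSO final. Stimulated with 1.7 ng/mL IL-12 (final) for 30 minutes; pSTAT4 and total STAT4 in lysates measured by MSD immunoassay.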

[4] = tested on: JAK2-pSTAT5 (GM-CSF induced pSTAT5); assay: GM-CSF induced pSTAT5 in human PBMC; type: cell-based; details: 5 ng/mL GM-CSF
How it was run: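 Thawed human PBMC, 200,000 per well in serum-containing medium, were preincubated 1 hr at 37 C with compound in 0.1% DMSO. GM-CSF at 5 ng/mL final was added for 20 minutes, then pSTAT5 and total STAT5 in lysates were measured by MSD immunoassay.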

Sequence of TYK2 (P29597 whole entry): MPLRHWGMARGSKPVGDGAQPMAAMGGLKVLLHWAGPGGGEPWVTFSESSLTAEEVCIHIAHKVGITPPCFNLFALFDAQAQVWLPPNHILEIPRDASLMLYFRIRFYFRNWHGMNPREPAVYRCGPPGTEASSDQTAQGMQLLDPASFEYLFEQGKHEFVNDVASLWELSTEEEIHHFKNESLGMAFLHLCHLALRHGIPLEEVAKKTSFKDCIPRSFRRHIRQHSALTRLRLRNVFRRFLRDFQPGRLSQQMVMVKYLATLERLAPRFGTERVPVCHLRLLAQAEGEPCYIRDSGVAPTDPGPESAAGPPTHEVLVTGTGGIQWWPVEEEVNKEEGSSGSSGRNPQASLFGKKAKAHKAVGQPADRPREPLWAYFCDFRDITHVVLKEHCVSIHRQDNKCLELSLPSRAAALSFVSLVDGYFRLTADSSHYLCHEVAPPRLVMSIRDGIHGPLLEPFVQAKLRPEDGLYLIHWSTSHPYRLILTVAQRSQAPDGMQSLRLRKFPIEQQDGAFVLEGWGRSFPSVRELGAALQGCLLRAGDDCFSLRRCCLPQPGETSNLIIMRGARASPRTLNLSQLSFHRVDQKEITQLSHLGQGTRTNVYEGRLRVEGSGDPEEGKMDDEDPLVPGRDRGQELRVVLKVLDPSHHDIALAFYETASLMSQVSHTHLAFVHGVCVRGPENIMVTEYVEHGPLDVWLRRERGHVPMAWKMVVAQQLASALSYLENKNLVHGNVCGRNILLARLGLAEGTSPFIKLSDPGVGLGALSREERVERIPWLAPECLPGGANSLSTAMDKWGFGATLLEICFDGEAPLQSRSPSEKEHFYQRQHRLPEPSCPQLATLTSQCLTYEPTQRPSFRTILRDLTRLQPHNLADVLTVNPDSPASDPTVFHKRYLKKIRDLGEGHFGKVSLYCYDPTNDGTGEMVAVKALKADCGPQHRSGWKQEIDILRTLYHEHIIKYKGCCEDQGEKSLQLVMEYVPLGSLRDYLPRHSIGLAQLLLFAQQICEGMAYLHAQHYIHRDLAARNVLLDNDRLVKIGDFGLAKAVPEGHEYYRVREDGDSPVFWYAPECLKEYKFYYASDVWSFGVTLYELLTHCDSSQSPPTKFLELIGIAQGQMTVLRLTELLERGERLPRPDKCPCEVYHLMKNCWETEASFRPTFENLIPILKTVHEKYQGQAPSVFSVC

| pKi [1] | pKi [2] | pEC50 ([3]; Homo sapiens, PBMC, 0.5 h) | pEC50 ([4]; Homo sapiens, PBMC, 20 min) | pEC50 [3] | pEC50 ([4]; 20 minutes) | SMILES |
| --- | --- | --- | --- | --- | --- | --- |
| 8.00 to 10.00 | 8.00 to 10.00 | 5.70 to 7.00 | < 5.70 | – | – | CO[C@@H]1CCN(c2ccn(-c3cc(-c4c(F)cccc4C#N)nc4c3C(=O)NC4)n2)C[C@H]1O [I-193, 3-fluoro-2-(4-(3-((3R,4R)-3-hydroxy-4-methoxypiperidin-1-yl)-1H-pyrazol-1-yl)-5-oxo-6,7-dihydro-5H-pyrrolo[3,4-b]pyridin-2-yl)benzonitrile] |
| 8.00 to 10.00 | 8.00 to 10.00 | 7.00 to 7.52 | 5.70 to 7.00 | – | – | CO[C@@H]1CN(c2ccn(-c3cc(-c4c(F)cccc4C#N)nc4c3C(=O)NC4)n2)CC[C@H]1O [I-195, 3-fluoro-2-(4-(3-((3R,4R)-4-hydroxy-3-methoxypiperidin-1-yl)-1H-pyrazol-1-yl)-5-oxo-6,7-dihydro-5H-pyrrolo[3,4-b]pyridin-2-yl)benzonitrile] |
| 8.00 to 10.00 | 8.00 to 10.00 | 7.00 to 7.52 | 5.70 to 7.00 | – | – | [2H]C([2H])([2H])C1(O)C([2H])([2H])N(c2ccn(-c3cc(-c4c(F)cccc4C#N)nc4c3C(=O)NC4)n2)C([2H])([2H])C1([2H])[2H] (centres unmarked) [I-196, 3-fluoro-2-(4-(3-(3-hydroxy-3-(methyl-d3)pyrrolidin-1-yl-2,2,4,4,5,5-d6)-1H-pyrazol-1-yl)-5-oxo-6,7-dihydro-5H-pyrrolo[3,4-b]pyridin-2-yl)benzonitrile] |
| 8.00 to 10.00 | 7.00 to 8.00 | 5.70 to 7.00 | < 5.70 | – | – | N#Cc1cccc(F)c1-c1cc(-n2ccc(N3CC[C@](O)(C(=O)N4CCCC4)C3)n2)c2c(n1)CNC2=O [I-198, (R)-3-fluoro-2-(4-(3-(3-hydroxy-3-(pyrrolidine-1-carbonyl)-pyrrolidin-1-yl)-1H-pyrazol-1-yl)-5-oxo-6,7-dihydro-5H-pyrrolo[3,4-b]pyridin-2-yl)benzonitrile] |
| 8.00 to 10.00 | 7.00 to 8.00 | 7.00 to 7.52 | 5.70 to 7.00 | – | – | [2H]C1([2H])NC(=O)c2c(-n3ccc(N4C([2H])([2H])CC(O)(C([2H])([2H])[2H])C4([2H])[2H])n3)cc(-c3c(F)cccc3C#N)nc21 (centres unmarked) [I-200, 3-fluoro-2-(4-(3-(3-hydroxy-3-(methyl-d3)pyrrolidin-1-yl-2,2,5,5-d4)-1H-pyrazol-1-yl)-5-oxo-6,7-dihydro-5H-pyrrolo[3,4-b]pyridin-2-yl-7,7-d2)benzonitrile] |
| 8.00 to 10.00 | 7.00 to 8.00 | – | – | 7.00 to 7.52 | 5.70 to 7.00 | CO[C@@H]1CN(c2ccn(-c3cc(-c4c(F)cccc4C#N)nc4c3C(=O)NC4)n2)CC[C@H]1O [I-201, 3-fluoro-2-(4-(3-((3R,4R)-4-hydroxy-3-methoxypiperidin-1-yl)-1H-pyrazol-1-yl)-5-oxo-6,7-dihydro-5H-pyrrolo[3,4-b]pyridin-2-yl)benzonitrile] |
| 8.00 to 10.00 | 7.00 to 8.00 | 7.00 to 7.52 | 5.70 to 7.00 | – | – | CO[C@H]1CN(c2ccn(-c3cc(-c4c(F)cccc4C#N)nc4c3C(=O)NC4)n2)CC[C@@H]1O [I-202, 3-fluoro-2-(4-(3-((3S,4S)-4-hydroxy-3-methoxypiperidin-1-yl)-1H-pyrazol-1-yl)-5-oxo-6,7-dihydro-5H-pyrrolo[3,4-b]pyridin-2-yl)benzonitrile] |
| 8.00 to 10.00 | 7.00 to 8.00 | 7.00 to 7.52 | 5.70 to 7.00 | – | – | [2H]C1([2H])N(c2ccn(-c3cc(-c4c(F)cccc4C#N)nc4c3C(=O)NC4)n2)C([2H])([2H])C([2H])([2H])C([2H])(O)C1([2H])[2H] [I-203, 3-fluoro-2-(4-(3-(4-hydroxypiperidin-1-yl-2,2,3,3,4,5,5,6,6-d9)-1H-pyrazol-1-yl)-5-oxo-6,7-dihydro-5H-pyrrolo[3,4-b]pyridin-2-yl)benzonitrile] |
| 8.00 to 10.00 | 7.00 to 8.00 | 7.00 to 7.52 | < 5.70 | – | – | CC1(C)[C@H](O)CCN1c1ccn(-c2cc(-c3c(F)cccc3C#N)nc3c2C(=O)NC3)n1 [I-204, (R)-3-fluoro-2-(4-(3-(3-hydroxy-2,2-dimethylpyrrolidin-1-yl)-1H-pyrazol-1-yl)-5-oxo-6,7-dihydro-5H-pyrrolo[3,4-b]pyridin-2-yl)benzonitrile] |
| 8.00 to 10.00 | 7.00 to 8.00 | 7.00 to 7.52 | 5.70 to 7.00 | – | – | CC1(C)[C@@H](O)CCN1c1ccn(-c2cc(-c3c(F)cccc3C#N)nc3c2C(=O)NC3)n1 [I-205, (S)-3-fluoro-2-(4-(3-(3-hydroxy-2,2-dimethylpyrrolidin-1-yl)-1H-pyrazol-1-yl)-5-oxo-6,7-dihydro-5H-pyrrolo[3,4-b]pyridin-2-yl)benzonitrile] |
| 8.00 to 10.00 | 7.00 to 8.00 | 7.00 to 7.52 | 5.70 to 7.00 | – | – | [2H]C1([2H])NC(=O)c2c(-n3ccc(N4C([2H])([2H])C[C@@](O)(C([2H])([2H])[2H])C4([2H])[2H])n3)cc(-c3c(F)cccc3C#N)nc21 [I-206, (S)-3-fluoro-2-(4-(3-(3-hydroxy-3-(methyl-d3)pyrrolidin-1-yl-2,2,5,5-d4)-1H-pyrazol-1-yl)-5-oxo-6,7-dihydro-5H-pyrrolo[3,4-b]pyridin-2-yl-7,7-d2)benzonitrile] |
| 8.00 to 10.00 | 7.00 to 8.00 | 7.00 to 7.52 | 5.70 to 7.00 | – | – | [2H]C1([2H])NC(=O)c2c(-n3ccc(N4C([2H])([2H])C[C@](O)(C([2H])([2H])[2H])C4([2H])[2H])n3)cc(-c3c(F)cccc3C#N)nc21 [I-207, (R)-3-fluoro-2-(4-(3-(3-hydroxy-3-(methyl-d3)pyrrolidin-1-yl-2,2,5,5-d4)-1H-pyrazol-1-yl)-5-oxo-6,7-dihydro-5H-pyrrolo[3,4-b]pyridin-2-yl-7,7-d2)benzonitrile] |
| 8.00 to 10.00 | 7.00 to 8.00 | 5.70 to 7.00 | < 5.70 | – | – | [2H]C1([2H])N(c2ccn(-c3cc(-c4c(F)cccc4C#N)nc4c3C(=O)NC4)n2)C([2H])([2H])[C@]([2H])(O)C1([2H])[2H] [I-208, (R)-3-fluoro-2-(4-(3-(3-hydroxypyrrolidin-1-yl-2,2,3,4,4,5,5-d7)-1H-pyrazol-1-yl)-5-oxo-6,7-dihydro-5H-pyrrolo[3,4-b]pyridin-2-yl)benzonitrile] |
| 8.00 to 10.00 | 7.00 to 8.00 | 5.70 to 7.00 | < 5.70 | – | – | [2H]C1([2H])N(c2ccn(-c3cc(-c4c(F)cccc4C#N)nc4c3C(=O)NC4)n2)C([2H])([2H])[C@@]([2H])(O)C1([2H])[2H] [I-209, (S)-3-fluoro-2-(4-(3-(3-hydroxypyrrolidin-1-yl-2,2,3,4,4,5,5-d7)-1H-pyrazol-1-yl)-5-oxo-6,7-dihydro-5H-pyrrolo[3,4-b]pyridin-2-yl)benzonitrile] |
| 8.00 to 10.00 | 7.00 to 8.00 | 7.00 to 7.52 | 5.70 to 7.00 | – | – | CO[C@H]1CCN(c2ccn(-c3cc(-c4c(F)cccc4C#N)nc4c3C(=O)NC4)n2)C[C@@H]1O [I-210, 3-fluoro-2-(4-(3-((3S,4S)-3-hydroxy-4-methoxypiperidin-1-yl)-1H-pyrazol-1-yl)-5-oxo-6,7-dihydro-5H-pyrrolo[3,4-b]pyridin-2-yl)benzonitrile] |
| 8.00 to 10.00 | 7.00 to 8.00 | – | – | 5.70 to 7.00 | < 5.70 | CO[C@@H]1CCN(c2ccn(-c3cc(-c4c(F)cccc4C#N)nc4c3C(=O)NC4)n2)C[C@H]1O [I-211, 3-fluoro-2-(4-(3-((3R,4R)-3-hydroxy-4-methoxypiperidin-1-yl)-1H-pyrazol-1-yl)-5-oxo-6,7-dihydro-5H-pyrrolo[3,4-b]pyridin-2-yl)benzonitrile] |
| 8.00 to 10.00 | 6.00 to 7.00 | 5.70 to 7.00 | < 5.70 | – | – | CC(=O)Nc1ccn(-c2cc(-c3c(F)cccc3C#N)nc3c2C(=O)NC3)n1 [I-212, N-(1-(2-(2-cyano-6-fluorophenyl)-5-oxo-6,7-dihydro-5H-pyrrolo[3,4-b]pyridin-4-yl)-1H-pyrazol-3-yl)acetamide] |
| 10.00 to 11.05 | 7.00 to 8.00 | 5.70 to 7.00 | – | – | < 5.70 | CO[C@@H]1CCN(c2ccn(-c3cc(-c4c(F)cccc4C#N)nc4c3C(=O)NC4)n2)C[C@]1(C)O [I-213, 3-fluoro-2-(4-(3-((3S,4R)-3-hydroxy-4-methoxy-3-methylpiperidin-1-yl)-1H-pyrazol-1-yl)-5-oxo-6,7-dihydro-5H-pyrrolo[3,4-b]pyridin-2-yl)benzonitrile] |
| 8.00 to 10.00 | 7.00 to 8.00 | 5.70 to 7.00 | < 5.70 | – | – | N#Cc1cccc(F)c1-c1cc(-n2ccc(N3C[C@H](O)C[C@H]3CO)n2)c2c(n1)CNC2=O [I-214, 3-fluoro-2-(4-(3-((2S,4R)-4-hydroxy-2-(hydroxymethyl)pyro-lidin-1-yl)-1H-pyrazol-1-yl)-5-oxo-6,7-dihydro-5H-pyrrolo[3,4-b]pyridin-2-yl)benzonitrile] |
| 8.00 to 10.00 | 7.00 to 8.00 | – | 5.70 to 7.00 | 5.70 to 7.00 | – | N#Cc1cccc(F)c1-c1cc(-n2ccc(N3CC[C@H](C#N)[C@@H](O)C3)n2)c2c(n1)CNC2=O [I-215, (3R,4R)-1-(1-(2-(2-cyano-6-fluorophenyl)-5-oxo-6,7-dihydro-5H-pyrrolo[3,4-b]pyridin-4-yl)-1H-pyrazol-3-yl)-3-hydroxypiperidine-4-carbonitrile] |
